# Results published in ChEMBL document CHEMBL5212743, “Selectivity Literature for EUbOPEN Chemogenomics Library wave 3” (2023).
# Key:
# [1] = target: Serine/threonine-protein kinase TAO1 (Homo sapiens) (UniProt Q7L7X3); assay: Selectivity interaction (KinomeScan (DiscoverX)) EUB0000178b TAOK1; conditions: at 1 µM
# [2] = target: Tyrosine-protein kinase Blk (Homo sapiens, UniProt P51451); conditions: at 1 µM
# [3] = target: Macrophage colony-stimulating factor 1 receptor (Homo sapiens) (UniProt P07333); conditions: at 1 µM
# [4] = target: Tyrosine-protein kinase ABL1 (Homo sapiens, UniProt P00519); conditions: at 1 µM
# [5] = target: T1, Ephrin type-B receptor 6 (Homo sapiens) (UniProt O15197); conditions: at 1 µM
# T1 sequence (whole entry): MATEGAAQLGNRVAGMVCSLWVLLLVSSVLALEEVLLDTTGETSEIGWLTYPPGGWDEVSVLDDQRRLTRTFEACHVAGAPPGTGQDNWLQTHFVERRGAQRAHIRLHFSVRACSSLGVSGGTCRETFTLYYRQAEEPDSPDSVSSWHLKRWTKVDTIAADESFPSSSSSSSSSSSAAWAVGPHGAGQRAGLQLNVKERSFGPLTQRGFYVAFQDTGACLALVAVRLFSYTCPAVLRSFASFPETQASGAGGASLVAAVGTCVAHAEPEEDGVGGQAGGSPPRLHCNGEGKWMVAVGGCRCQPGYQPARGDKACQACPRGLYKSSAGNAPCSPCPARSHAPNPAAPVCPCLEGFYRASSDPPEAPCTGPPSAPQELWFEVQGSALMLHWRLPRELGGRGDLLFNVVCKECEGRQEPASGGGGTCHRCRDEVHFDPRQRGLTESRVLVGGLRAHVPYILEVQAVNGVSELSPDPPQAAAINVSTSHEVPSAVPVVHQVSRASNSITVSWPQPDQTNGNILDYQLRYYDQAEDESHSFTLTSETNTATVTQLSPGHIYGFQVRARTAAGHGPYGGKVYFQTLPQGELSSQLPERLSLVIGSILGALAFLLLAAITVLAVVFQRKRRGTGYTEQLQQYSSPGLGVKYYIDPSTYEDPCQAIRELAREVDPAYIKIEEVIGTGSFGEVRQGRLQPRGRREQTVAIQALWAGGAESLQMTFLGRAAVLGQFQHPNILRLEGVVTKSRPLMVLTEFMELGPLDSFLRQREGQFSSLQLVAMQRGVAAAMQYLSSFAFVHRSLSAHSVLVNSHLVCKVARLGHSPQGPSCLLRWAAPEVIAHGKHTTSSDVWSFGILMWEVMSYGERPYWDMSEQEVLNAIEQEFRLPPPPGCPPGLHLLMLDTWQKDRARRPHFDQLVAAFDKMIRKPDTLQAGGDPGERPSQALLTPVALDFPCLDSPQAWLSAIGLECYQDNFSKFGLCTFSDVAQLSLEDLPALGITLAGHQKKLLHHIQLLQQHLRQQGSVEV
# [6] = target: Muscle, skeletal receptor tyrosine-protein kinase (Homo sapiens) (UniProt O15146); conditions: at 1 µM
# [7] = target: Tyrosine-protein kinase receptor Tie-1 (Homo sapiens) (UniProt P35590); conditions: at 1 µM
# [8] = target: Serine/threonine-protein kinase PLK3 (Homo sapiens, UniProt Q9H4B4); assay: Selectivity interaction (KinomeScan (DiscoverX)) EUB0000702a PLK3; conditions: at 1 µM
# [9] = target: T2, Gamma-aminobutyric acid receptor subunit alpha-1 (Homo sapiens, UniProt P14867); assay: Selectivity interaction (GPCR panel (PDSP screen)) EUB0000702a GABRA1
# T2 sequence (P14867 whole entry): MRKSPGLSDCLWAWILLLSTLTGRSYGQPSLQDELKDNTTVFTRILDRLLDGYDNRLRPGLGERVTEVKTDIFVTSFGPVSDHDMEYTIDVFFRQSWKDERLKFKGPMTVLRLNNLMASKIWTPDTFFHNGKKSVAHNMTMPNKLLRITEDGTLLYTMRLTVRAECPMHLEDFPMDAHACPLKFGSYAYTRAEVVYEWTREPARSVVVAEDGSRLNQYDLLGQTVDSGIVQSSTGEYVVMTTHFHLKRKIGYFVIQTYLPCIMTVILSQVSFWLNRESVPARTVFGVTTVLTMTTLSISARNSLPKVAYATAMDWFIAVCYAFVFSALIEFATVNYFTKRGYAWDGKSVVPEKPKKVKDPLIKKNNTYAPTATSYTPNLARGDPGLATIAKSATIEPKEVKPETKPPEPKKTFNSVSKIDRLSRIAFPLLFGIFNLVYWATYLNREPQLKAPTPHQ
# [10] = target: Aurora kinase B (Homo sapiens, UniProt Q96GD4); assay: Selectivity interaction (KinomeScan (DiscoverX)) EUB0000702a AURKB; conditions: at 1 µM
# [11] = target: Tyrosine-protein kinase SYK (Homo sapiens, UniProt P43405); assay: Selectivity interaction (KinomeScan (DiscoverX)) EUB0000305b SYK; conditions: CellTiter-Glo assay (Promega, proliferation in ACHN cells): IC50 = […] nM, https://www.sgc-ffm.uni-frankfurt.de/#!specificprobeove, at 100 nM
# [12] = target: T3, Mitogen-activated protein kinase 12 (Homo sapiens) (UniProt P53778); conditions: at 10 µM
# T3 sequence (whole entry): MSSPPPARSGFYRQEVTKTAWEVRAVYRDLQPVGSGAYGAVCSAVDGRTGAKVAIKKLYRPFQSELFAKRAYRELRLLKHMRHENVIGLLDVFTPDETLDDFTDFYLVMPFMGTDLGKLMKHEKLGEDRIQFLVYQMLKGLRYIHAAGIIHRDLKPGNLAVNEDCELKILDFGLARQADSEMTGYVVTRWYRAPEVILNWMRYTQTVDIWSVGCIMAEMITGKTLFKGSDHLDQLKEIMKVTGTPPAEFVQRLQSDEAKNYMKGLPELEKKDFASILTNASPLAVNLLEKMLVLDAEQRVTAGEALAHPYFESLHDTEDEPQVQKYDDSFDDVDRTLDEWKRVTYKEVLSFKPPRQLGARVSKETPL
# [13] = target: MAP kinase-activated protein kinase 2 (Homo sapiens, UniProt P49137); assay: Selectivity interaction (Kinase panel (University of Dundee)) EUB0000169b MAPKAPK2; conditions: at 10 µM
# [14] = target: Ribosomal protein S6 kinase beta-1 (Homo sapiens) (UniProt P23443); conditions: at 10 µM
# Ribosomal protein S6 kinase beta-1 (Homo sapiens), sequence (P23443 whole entry, looked up): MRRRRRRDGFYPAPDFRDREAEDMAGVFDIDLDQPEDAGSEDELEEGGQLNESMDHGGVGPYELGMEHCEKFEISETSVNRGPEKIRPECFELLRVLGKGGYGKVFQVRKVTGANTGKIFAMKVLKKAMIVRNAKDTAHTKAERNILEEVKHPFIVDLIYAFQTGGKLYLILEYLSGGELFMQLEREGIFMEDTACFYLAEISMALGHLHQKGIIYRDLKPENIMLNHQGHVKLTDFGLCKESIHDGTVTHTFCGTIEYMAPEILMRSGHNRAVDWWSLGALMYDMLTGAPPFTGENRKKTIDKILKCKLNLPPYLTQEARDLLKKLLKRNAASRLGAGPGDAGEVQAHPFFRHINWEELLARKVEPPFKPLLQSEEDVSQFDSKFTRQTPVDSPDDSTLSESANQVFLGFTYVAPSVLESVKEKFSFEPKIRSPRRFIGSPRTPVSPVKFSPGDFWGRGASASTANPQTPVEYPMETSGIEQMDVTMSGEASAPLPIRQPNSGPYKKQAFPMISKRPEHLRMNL
# Serine/threonine-protein kinase PLK3, sequence (Q9H4B4 whole entry, looked up): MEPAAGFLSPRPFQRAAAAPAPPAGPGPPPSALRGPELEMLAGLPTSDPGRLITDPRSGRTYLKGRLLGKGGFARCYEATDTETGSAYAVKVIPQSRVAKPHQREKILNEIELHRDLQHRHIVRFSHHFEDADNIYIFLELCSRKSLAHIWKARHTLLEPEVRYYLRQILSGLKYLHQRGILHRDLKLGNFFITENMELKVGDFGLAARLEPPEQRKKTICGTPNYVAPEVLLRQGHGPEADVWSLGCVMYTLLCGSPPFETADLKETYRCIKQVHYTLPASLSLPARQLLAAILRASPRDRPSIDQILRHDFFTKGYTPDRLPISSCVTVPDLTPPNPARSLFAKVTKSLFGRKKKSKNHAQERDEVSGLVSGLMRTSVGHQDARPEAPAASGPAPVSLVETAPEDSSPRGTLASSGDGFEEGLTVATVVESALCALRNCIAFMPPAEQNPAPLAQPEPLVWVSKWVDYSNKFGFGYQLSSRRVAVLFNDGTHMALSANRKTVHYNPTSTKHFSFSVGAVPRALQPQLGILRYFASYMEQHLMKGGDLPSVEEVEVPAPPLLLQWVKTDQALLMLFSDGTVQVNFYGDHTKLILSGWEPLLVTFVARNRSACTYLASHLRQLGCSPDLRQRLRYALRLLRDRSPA
# Tyrosine-protein kinase receptor Tie-1 (Homo sapiens), sequence (P35590 whole entry): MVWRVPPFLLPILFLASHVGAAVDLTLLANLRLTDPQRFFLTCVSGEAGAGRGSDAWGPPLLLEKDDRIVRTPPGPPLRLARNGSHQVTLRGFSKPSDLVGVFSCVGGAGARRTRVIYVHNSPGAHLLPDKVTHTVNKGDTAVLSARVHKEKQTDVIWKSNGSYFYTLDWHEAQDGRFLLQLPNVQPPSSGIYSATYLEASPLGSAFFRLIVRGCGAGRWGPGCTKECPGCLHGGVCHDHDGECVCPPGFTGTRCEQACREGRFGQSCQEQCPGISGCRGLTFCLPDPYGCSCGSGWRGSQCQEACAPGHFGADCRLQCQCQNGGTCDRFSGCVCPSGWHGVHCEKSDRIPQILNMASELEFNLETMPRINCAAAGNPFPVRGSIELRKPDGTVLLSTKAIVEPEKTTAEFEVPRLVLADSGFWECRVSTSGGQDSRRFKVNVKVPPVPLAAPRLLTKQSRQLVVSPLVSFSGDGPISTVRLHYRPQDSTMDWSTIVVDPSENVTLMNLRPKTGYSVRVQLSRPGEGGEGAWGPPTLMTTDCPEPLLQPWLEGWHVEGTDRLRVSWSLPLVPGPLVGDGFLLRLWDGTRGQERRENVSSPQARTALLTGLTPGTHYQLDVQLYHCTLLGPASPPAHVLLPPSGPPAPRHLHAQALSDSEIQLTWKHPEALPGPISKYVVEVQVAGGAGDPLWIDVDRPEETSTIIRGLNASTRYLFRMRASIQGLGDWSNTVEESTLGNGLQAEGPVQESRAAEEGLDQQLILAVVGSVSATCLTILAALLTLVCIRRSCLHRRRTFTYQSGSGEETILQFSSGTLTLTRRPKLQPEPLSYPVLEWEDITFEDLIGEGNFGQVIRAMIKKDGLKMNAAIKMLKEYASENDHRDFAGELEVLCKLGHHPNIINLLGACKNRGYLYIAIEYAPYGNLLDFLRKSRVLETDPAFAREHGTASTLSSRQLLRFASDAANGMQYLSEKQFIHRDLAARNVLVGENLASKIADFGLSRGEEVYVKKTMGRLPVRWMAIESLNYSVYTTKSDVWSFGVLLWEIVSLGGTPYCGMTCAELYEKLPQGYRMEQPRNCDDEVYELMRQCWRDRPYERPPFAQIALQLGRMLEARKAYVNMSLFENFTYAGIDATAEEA
# MAP kinase-activated protein kinase 2, sequence (P49137 whole entry, looked up): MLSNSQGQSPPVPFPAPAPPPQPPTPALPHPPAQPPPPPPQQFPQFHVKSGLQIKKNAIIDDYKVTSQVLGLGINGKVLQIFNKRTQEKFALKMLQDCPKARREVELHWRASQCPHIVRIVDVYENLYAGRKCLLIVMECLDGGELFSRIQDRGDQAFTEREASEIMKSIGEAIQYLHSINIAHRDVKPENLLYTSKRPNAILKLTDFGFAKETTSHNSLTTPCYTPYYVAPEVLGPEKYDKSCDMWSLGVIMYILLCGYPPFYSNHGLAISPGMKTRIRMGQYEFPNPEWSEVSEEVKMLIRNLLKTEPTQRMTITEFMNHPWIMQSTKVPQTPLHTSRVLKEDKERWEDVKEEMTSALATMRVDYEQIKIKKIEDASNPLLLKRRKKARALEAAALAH
# Tyrosine-protein kinase ABL1, sequence (P00519 whole entry): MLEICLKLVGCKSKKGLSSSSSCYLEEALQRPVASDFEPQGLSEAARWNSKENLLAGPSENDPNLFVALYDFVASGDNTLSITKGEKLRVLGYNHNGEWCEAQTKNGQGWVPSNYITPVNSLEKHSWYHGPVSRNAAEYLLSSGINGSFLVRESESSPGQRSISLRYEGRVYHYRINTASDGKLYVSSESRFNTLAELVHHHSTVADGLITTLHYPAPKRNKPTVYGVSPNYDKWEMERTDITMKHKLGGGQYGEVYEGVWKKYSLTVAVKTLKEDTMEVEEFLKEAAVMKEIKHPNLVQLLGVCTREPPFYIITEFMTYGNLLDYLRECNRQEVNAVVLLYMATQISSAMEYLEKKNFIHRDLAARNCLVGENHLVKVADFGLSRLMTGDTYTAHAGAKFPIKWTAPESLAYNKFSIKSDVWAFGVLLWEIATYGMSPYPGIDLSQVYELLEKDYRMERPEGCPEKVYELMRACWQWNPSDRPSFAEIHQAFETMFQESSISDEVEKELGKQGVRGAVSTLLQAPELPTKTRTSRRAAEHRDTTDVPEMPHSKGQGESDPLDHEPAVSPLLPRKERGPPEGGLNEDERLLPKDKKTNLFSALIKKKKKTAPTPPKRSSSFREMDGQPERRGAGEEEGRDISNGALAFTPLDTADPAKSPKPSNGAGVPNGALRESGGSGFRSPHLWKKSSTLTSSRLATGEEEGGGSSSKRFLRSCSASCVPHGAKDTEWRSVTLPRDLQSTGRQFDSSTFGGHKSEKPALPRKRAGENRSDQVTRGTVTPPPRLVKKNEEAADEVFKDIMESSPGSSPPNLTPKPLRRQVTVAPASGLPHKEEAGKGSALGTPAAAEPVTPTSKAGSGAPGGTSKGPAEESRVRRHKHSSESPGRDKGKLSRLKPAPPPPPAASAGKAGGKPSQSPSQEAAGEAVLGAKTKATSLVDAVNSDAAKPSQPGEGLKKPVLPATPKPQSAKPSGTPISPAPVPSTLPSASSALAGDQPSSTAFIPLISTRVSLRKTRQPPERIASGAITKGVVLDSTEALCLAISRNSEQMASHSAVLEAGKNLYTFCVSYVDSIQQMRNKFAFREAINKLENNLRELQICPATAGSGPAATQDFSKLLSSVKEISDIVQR
# Serine/threonine-protein kinase TAO1 (Homo sapiens), sequence (Q7L7X3 whole entry): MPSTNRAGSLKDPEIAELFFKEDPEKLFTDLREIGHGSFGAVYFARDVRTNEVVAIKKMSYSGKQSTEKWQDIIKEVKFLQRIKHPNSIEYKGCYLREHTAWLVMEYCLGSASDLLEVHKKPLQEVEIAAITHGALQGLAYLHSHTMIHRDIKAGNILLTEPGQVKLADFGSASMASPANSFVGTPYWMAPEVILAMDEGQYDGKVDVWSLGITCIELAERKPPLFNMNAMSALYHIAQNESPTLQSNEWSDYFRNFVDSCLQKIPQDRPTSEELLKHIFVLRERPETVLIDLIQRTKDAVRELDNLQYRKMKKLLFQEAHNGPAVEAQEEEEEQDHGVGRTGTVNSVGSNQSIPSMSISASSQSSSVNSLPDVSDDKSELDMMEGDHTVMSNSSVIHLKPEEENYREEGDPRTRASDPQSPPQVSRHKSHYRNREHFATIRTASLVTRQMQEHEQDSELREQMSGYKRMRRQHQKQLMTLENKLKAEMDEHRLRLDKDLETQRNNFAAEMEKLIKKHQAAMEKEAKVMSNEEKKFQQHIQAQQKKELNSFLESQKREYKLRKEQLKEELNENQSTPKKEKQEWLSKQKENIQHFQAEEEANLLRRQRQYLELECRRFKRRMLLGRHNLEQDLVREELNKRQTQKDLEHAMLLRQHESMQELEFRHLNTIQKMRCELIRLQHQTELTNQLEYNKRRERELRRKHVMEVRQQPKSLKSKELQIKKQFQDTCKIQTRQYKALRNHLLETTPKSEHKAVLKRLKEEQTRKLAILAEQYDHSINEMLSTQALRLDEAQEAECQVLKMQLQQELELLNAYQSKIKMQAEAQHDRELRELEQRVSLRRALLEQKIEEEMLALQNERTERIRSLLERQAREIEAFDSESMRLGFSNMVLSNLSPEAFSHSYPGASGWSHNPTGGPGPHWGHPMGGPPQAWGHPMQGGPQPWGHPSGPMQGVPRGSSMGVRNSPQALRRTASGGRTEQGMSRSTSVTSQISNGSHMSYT
smiles,measurement,setting,value
CN1C(=O)c2sccc2N(C)c2nc(Nc3ccc(S(N)(=O)=O)cc3)ncc21,% of control,[1],2.6%
CCOc1cn(-c2ccc(F)cc2C)nc1C(=O)Nc1ccc(Oc2ccnc3cc(OC)c(OC)cc23)c(F)c1,% of control,[2],< 10%
same,% of control,[3],< 10%
same,% of control,[4],< 10%
same,% of control,[5],< 10%
same,% of control,[6],< 10%
same,% of control,[7],< 10%
CN(c1ccnc(CNc2nc(Nc3ccc4c(c3)CC(=O)N4)ncc2C(F)(F)F)n1)S(C)(=O)=O [PF-00911705],% of control,[8],1.7%
same,Ki,[9],1480 nM
same,% of control,[10],9.9%
C[C@H](c1ccnc(Nc2nc3ccc(-c4cc(N(C)C)ncn4)cc3[nH]2)c1)N1CCN(C(=O)CC(F)(F)F)CC1 [BAY-985],% of control,[11],31%
CC[C@@H]1C(=O)N(C)c2cnc(Nc3ccc(C(=O)NC4CCN(C)CC4)cc3OC)nc2N1C1CCCC1,% of control,[12],112%
same,% of control,[13],79%
same,% of control,[14],102%
